The source of these data is patent US6245799A, “[(Indol-3-yl)-cycloalkyl]-3-substituted azetidines for the treatment of central nervous system disorders” (American Home Products Corp, priority 2000, dated 2001).

pIC50, pKi: −log10 of the molar value. Like-named read-outs stand apart in the source and are kept apart here.

The target of assay [1] is T1, 5-HT transporter (Rattus norvegicus, UniProt P31652).
T1 construct: frontal cortical membranes prepared from male S.D. rats; from tissue; host or cells: frontal cortical membranes of male S.D. (Sprague-Dawley) rats
T1 sequence (P31652 whole entry): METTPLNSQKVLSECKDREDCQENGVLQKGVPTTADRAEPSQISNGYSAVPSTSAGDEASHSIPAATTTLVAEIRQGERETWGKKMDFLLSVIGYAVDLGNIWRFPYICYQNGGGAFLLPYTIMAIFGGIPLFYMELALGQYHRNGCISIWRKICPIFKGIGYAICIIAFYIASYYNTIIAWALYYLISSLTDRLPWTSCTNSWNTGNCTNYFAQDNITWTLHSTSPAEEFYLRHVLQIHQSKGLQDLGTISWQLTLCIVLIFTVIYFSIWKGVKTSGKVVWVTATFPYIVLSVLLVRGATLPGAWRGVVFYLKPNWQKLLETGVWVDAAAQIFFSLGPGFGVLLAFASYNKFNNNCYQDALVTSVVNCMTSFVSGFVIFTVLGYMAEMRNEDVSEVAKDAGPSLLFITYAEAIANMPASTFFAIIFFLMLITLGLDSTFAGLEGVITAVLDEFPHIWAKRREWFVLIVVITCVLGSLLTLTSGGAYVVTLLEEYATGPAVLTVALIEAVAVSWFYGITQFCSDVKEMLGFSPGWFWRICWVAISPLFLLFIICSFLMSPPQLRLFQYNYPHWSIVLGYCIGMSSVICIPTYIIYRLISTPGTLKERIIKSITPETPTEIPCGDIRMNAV
Kind of assay: Rat Brain ^3 H-Paroxetine Binding Assay (RB 5HT Transporter). From the text: The 5-HT transporter affinity of the compounds of this invention was established in accordance with standard pharmaceutically accepted test procedures with representative compounds as follows:
Rat Brain ^3 H-Paroxetine Binding Assay (RB 5HT Transporter):
The following assay was used to determine a compound's affinity for the 5-HT transporter.
A protocol similar to that used by Cheetham et. al. (Neuropharmacol. 1993, 32, 737) was used. Briefly, frontal cortical membranes prepared from male S.D. rats were incubated with ^3 H-paroxetine (0.1 nM) for 60 min. at 25° C. All tubes also contained either vehicle, test compound (one to eight concentrations), or a saturating concentration of fluoxetine (10 μM) to define […]. All reactions are terminated by the addition of ice cold Tris buffer followed by rapid filtration using a Tom Tech filtration device to separate bound from free ^3 H-paroxetine. Bound radioactivity was quantitated using a Wallac 1205 Beta Plate® counter. Nonlinear regression analysis was used to determine IC50 values which were converted to Ki values using the method of Cheng and Prusoff (Biochem. Pharmacol. 1973, 22, 3099): [formula]

The target of assay [2] is T2, Human 5-HT Transporter (Homo sapiens, UniProt P31645).
T2 construct: endogenous in cells; host or cells: Jar cells (human carcinoma cell line), treated with staurosporine to raise expression
T2 sequence (P31645 whole entry): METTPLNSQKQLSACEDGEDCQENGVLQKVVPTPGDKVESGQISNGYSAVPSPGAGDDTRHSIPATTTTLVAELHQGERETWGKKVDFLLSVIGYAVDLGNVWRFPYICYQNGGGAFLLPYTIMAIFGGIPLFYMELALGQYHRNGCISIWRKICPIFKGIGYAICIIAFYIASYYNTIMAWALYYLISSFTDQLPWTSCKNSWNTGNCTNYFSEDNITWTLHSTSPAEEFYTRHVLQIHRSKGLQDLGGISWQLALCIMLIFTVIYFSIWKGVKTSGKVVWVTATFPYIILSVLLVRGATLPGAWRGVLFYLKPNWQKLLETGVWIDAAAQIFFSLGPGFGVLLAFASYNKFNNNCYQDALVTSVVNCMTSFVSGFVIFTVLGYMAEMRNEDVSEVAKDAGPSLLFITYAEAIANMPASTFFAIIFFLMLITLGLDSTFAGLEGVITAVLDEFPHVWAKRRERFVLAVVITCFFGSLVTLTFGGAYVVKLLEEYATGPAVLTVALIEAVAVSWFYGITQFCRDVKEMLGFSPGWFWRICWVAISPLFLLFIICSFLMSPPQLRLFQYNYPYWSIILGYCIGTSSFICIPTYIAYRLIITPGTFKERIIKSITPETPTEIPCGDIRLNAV
In words: Inhibition of ^3 H-5-HT Uptake by cells Possessing the Human 5-HT Transporter (HC 5HT Transporter). The class given is cell-based. As for the experimental part:
[Staurosporine greatly increases the expression of the 5-HT-transporter.] On the day of assay, vehicle, excess of fluoxetine, or test compound is added to various wells on the plate. All wells then receive ^3 H-5-HT and are incubated at 37° C. for 5 min. The wells are then washed with ice cold 50 mM Tris HCl (pH 7.4) buffer and aspirated to remove free ^3 H-5-HT. 25 μl of 0.25 M NaOH is then added to each well to lyse the cells and 75 μl scintillation cocktail (Microscint™ 20) added prior to quantitation on a Packard TopCount machine. Tubes with vehicle represent total possible uptake, radioactivity counted in tubes with fluoxetine represent nonspecific binding/uptake and is subtracted from the total possible uptake to give total possible specific uptake. This nonspecific binding (usual low in number) is then subtracted from the counts obtained in wells with various test compounds (or different concentrations of test drug) to give specific uptake in the presence of drug. Specific uptake is then expressed as a % of control values and is analyzed using nonlinear regression analysis (Prizm) to determine IC50 values. If the compound is active at inhibiting 5-HT uptake, its counts will be close to that obtained with fluoxetine.

[3] abbreviates: rat frontal cortical membranes; ^3 H-paroxetine (0.1 nM), 60 min, 25° C.; n = 1; read-out: RB 5HT Transporter Ki.
[4] abbreviates: Jar cells (human carcinoma), staurosporine treated, ^3 H-5-HT uptake, 37° C., 5 min, n = 1, read-out: HC 5HT Transporter IC50.
Setting [5] is: RB 5HT Transporter Ki, rat frontal cortical membranes; ^3 H-paroxetine (0.1 nM), 60 min, 25° C.; n = 1.

“2-{cis-4-[3-(3-Methoxy-phenoxy)-azetidin-1-yl]-cyclohexyl}-1H-indole [Example 6a]”: the negative logarithm of the Ki (pKi) in assay [1] (setting [3]) was 6.92. Still for that read-out and setting: the same measure for `Fc1cccc(OC2CN(C3CCC(c4c[nH]c5cc(F)ccc45)CC3)C2)c1` (single isomer, unassigned) [Example 10a, 6-Fluoro-3-{4-[3-(3-fluoro-phenoxy)-azetidin-1-yl]-cyclohexyl}-1H-indole]: 6.72. For the compound `Fc1cccc(OC2CN(C3CCC(c4c[nH]c5cc(F)ccc45)CC3)C2)c1` (single isomer, unassigned) [Example 10b, 6-Fluoro-3-{4-[3-(3-fluoro-phenoxy)-azetidin-1-yl]-cyclohexyl}-1H-indole], the pKi in assay [1] (setting [3]) is 7.14. Besides, in assay [2] (setting [4]), the pIC50 is 5.34.

Turning to `COc1ccccc1NC1CN([C@H]2CC[C@@H](c3c[nH]c4ccc(F)cc43)CC2)C1` [Example 1a], the pKi in assay [1] (setting [3]) was 7.82. Moreover, the pIC50 in assay [2] (setting [4]) is 6.02.

Turning to `COc1ccccc1NC1CN([C@H]2CC[C@H](c3c[nH]c4ccc(F)cc43)CC2)C1` [Example 1b], the pKi in assay [1] (setting [3]) is 7.77. For the same compound, the pIC50 in assay [2] (setting [4]) was 6.23. The corresponding values for `N#Cc1ccc2[nH]cc([C@H]3CC[C@@H](N4CC(Oc5cccc(F)c5)C4)CC3)c2c1` [Example 2a, 3-(cis-4-[3-(3-Fluoro-phenoxy)-azetidin-1-yl]-cyclohexyl)-1H-indole-5-carbonitrile] are 7.80 and 6.47. The corresponding values for `N#Cc1ccc2[nH]cc([C@H]3CC[C@H](N4CC(Oc5cccc(F)c5)C4)CC3)c2c1` [Example 2b, 3-(trans-4-[3-(3-Fluoro-phenoxy)-azetidin-1-yl]-cyclohexyl)-1H-indole-5-carbonitrile] are 7.32 and 6.55. On to `COc1cccc(OC2CN([C@H]3CC[C@@H](c4c[nH]c5ccc(C#N)cc54)CC3)C2)c1` [Example 3a], for which the pKi in assay [1] (setting [5]) is 8.62. For the same compound, the pIC50 in assay [2] is 7.04. The corresponding values for `COc1cccc(OC2CN([C@H]3CC[C@H](c4c[nH]c5ccc(C#N)cc54)CC3)C2)c1` [Example 3b] are 7.96 and 6.63. For `Fc1cccc(NC2CN([C@H]3CC[C@@H](c4c[nH]c5ccc(F)cc54)CC3)C2)c1` [Example 4, {1-[cis-4-(5-Fluoro-1H-indol-3-yl)-cyclohexyl]-azetidin-3-yl}-(3-fluoro-phenyl)-amine], the pKi in assay [1] (setting [3]) was 7.74. Besides, in assay [2] (setting [4]), the pIC50 is 5.19. `COc1ccccc1NC1CN([C@H]2CC[C@@H](c3c[nH]c4ccccc43)CC2)C1` [Example 5a, {1-[cis-4-(1H-Indol-3-yl)-cyclohexyl]-azetidin-3-yl}-(2-methoxy-phenyl)-amine]: in assay [1] (setting [5]), the pKi was 6.91. On the same count and under the same terms, the result for `COc1ccccc1NC1CN([C@H]2CC[C@H](c3c[nH]c4ccccc43)CC2)C1` [Example 5b, {1-[trans-4-(1H-Indol-3-yl)-cyclohexyl]-azetidin-3-yl}-(2-methoxy-phenyl)-amine] reads 7.47. `Fc1cccc(OC2CN([C@H]3CC[C@@H](c4c[nH]c5ccc(F)cc54)CC3)C2)c1` [Example 7a, 5-Fluoro-3-{cis-4-[3-(3-fluoro-phenoxy)-azetidin-1-yl]-cyclohexyl}-1H-indole]: the pKi in assay [1] (setting [3]) was 6.59. With `Fc1cccc(OC2CN([C@H]3CC[C@H](c4c[nH]c5ccc(F)cc54)CC3)C2)c1` [Example 7b, 5-Fluoro-3-{trans-4-[3-(3-fluoro-phenoxy)-azetidin-1-yl]-cyclohexyl}-1H-indole], the pKi in assay [1] (read-out: RB 5HT Transporter Ki; rat frontal cortical membranes; ^3 H-paroxetine (0.1 nM), 60 min, 25° C.; n = 1) is 7.17. In assay [2] (read-out: HC 5HT Transporter IC50, Jar cells (human carcinoma), staurosporine treated, ^3 H-5-HT uptake, 37° C., 5 min, n = 1), the pIC50 was 5.22. On to `COc1cccc(OC2CN([C@H]3CC[C@@H](c4c[nH]c5ccc(F)cc54)CC3)C2)c1` [Example 8a, 5-Fluoro-3-{cis-4-[3-(3-methoxy-phenoxy)-azetidin-1-yl]-cyclohexyl}-1H-indole], for which the pKi in assay [1] (setting [3]) was 7.62. For the same compound, the pIC50 in assay [2] (setting [4]) was 5.22. The corresponding values for `COc1cccc(OC2CN([C@H]3CC[C@H](c4c[nH]c5ccc(F)cc54)CC3)C2)c1` [Example 8b, 5-Fluoro-3-{trans-4-[3-(3-methoxy-phenoxy)-azetidin-1-yl]-cyclohexyl}-1H-indole] are 7.35 and 5.82. In assay [1] (setting [5]), `Fc1cccc(OC2CN([C@H]3CC[C@@H](c4c[nH]c5ccccc54)CC3)C2)c1` [Example 9a, 3-{4-[3-(3-Fluoro-phenoxy)-azetidin-1-yl]-cyclohexyl}-1H-indole] had a pKi of 6.56. Same read-out and setting: the result for `Fc1cccc(OC2CN([C@H]3CC[C@H](c4c[nH]c5ccccc54)CC3)C2)c1` [Example 9b, 3-{4-[3-(3-Fluoro-phenoxy)-azetidin-1-yl]-cyclohexyl}-1H-indole] reads 6.34.
